Data from US12187728B2 (Raze Therapeutics, Inc., priority 2015, dated 2025).

Target: T1, Human MTHFD2 (Homo sapiens, UniProt P13995)
T1 construct: residues 36-350 in Uniport ID P13995; His6 (N); made in house; host or cells: E. coli
T1 sequence (P13995 36-350): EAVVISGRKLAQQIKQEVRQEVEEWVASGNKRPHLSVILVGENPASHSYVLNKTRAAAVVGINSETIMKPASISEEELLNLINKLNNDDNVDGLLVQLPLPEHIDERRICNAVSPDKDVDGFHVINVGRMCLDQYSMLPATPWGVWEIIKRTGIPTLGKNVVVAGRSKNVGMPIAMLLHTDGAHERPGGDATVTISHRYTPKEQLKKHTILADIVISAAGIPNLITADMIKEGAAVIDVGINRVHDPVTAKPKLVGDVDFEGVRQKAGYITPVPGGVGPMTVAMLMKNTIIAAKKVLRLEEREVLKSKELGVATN
Assay: MTHFD2 Activity Assay (dehydrogenase activity, diaphorase/resazurin coupled fluorescence)
Assay type: biochemical
Conditions: inhibitory activity (IC50 and/or binding constant); 0.2 nM MTHFD2, 11 concentrations
How it was run: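 His6-tagged MTHFD2 (res. 36-350), E. coli-expressed, at 0.2 nM preincubated with compound 15 min in Hepes pH 8.0/MgCl2/KH2PO4 buffer; 70 μM CH2-THF, 1 mM NAD+ added with resazurin/diaphorase, 30 min, EDTA stop. Resorufin fluorescence (ex 525/em 598); IC50 from 11-point 4-parameter fit.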

| SMILES | IC50 [nM] |
| --- | --- |
| Cn1c(Nc2cccnn2)nc2c1c(=O)n(Cc1cc3cc(Cl)ccc3[nH]1)c(=O)n2C [Example 200, 1-((5-chloro-1H-indol-2-yl)methyl)-3,7-dimethyl-8-(pyridazin-3-ylamino)-1H-purine-2,6(3H,7H)-dione] | 1000 to 5000 |
| Cn1c(N[C@@H]2CC[C@H](C(=O)O)C2)nc2c1c(=O)n(Cc1ccc(C(F)(F)F)cc1)c(=O)n2C [Example 77, (1S,3R)-3-[(3,7-dimethyl-2,6-dioxo-1-{[4-(trifluoromethyl)phenyl]methyl}-2,3,6,7-tetrahydro-1H-purin-8-yl)amino]cyclopentane-1-carboxylic acid] | 1000 to 5000 |
| COc1cc(Cn2c(=O)c3c(nc(N[C@@H]4CCC[C@H]4O)n3C)n(C)c2=O)ccc1Cl [Example 103, 1-[(4-chloro-3-methoxyphenyl)methyl]-8-{[(1R,2R)-2-hydroxycyclopentyl]amino}-3,7-dimethyl-2,3,6,7-tetrahydro-1H-purine-2,6-dione] | 1000 to 5000 |
| Cn1c(N[C@H]2CC[C@@H](O)C2)nc2c1c(=O)n(Cc1nc3ccccc3[nH]1)c(=O)n2C [Example 99, 1-((1H-benzo[d]imidazol-2-yl)methyl)-8-((1S,3R)-3-hydroxycyclopentylamino)-3,7-dimethyl-1H-purine-2,6(3H,7H)-dione] | 1000 to 5000 |
| Cn1c(NCCCO)nc2c1c(=O)n(Cc1ccc(Cl)c(F)c1)c(=O)n2C [Example 23, 1-[(4-chloro-3-fluorophenyl)methyl]-8-[(3-hydroxypropyl)amino]-3,7-dimethyl-2,3,6,7-tetrahydro-1H-purine-2,6-dione] | 1000 to 5000 |
| C[C@@H](CCO)Nc1nc2c(c(=O)n(Cc3ccc(Cl)cc3)c(=O)n2C)n1C [Example 31, 1-[(4-chlorophenyl)methyl]-8-{[(2S)-4-hydroxybutan-2-yl]amino}-3,7-dimethyl-2,3,6,7-tetrahydro-1H-purine-2,6-dione] | 1000 to 5000 |
| C[C@@H](Nc1nc2c(c(=O)n(Cc3ccc(Cl)c(Cl)c3)c(=O)n2C)n1C)C(=O)O [Example 129, (R)-2-(1-(3,4-dichlorobenzyl)-3,7-dimethyl-2,6-dioxo-2,3,6,7-tetrahydro-1H-purin-8-ylamino)propanoic acid] | 1000 to 5000 |
| Cn1c(Cn2c(=O)c3c(nc(N)n3C)n(C)c2=O)cc2cc(Cl)ccc21 [Example 237, 8-amino-1-((5-chloro-1-methyl-1H-indol-2-yl)methyl)-3,7-dimethyl-1H-purine-2,6(3H,7H)-dione] | 1000 to 5000 |
| Cn1c(Nc2ccncc2)nc2c1c(=O)n(Cc1cc3c(Br)cccc3[nH]1)c(=O)n2C [Example 348, 1-((4-bromo-1H-indol-2-yl)methyl)-3,7-dimethyl-8-(pyridin-4-ylamino)-1H-purine-2, 6(3H,7H)-dione] | 5000 to 10000 |
| CCOC(=O)Cc1nc2c(c(=O)n(Cc3ccc(Cl)c(Cl)c3)c(=O)n2C)n1C [Example 162, ethyl 2-(1-(3,4-dichlorobenzyl)-3,7-dimethyl-2,6-dioxo-2,3,6,7-tetrahydro-1H-purin-8-yl)acetate] | 5000 to 10000 |
| Cn1c(N[C@@H]2CC[C@@H](O)C2)nc2c1c(=O)n(Cc1ccc(C(F)(F)F)cc1)c(=O)n2C (single isomer, unassigned) [Example 144, 8-((1R,3R)-3-hydroxycyclopentylamino)-3,7-dimethyl-1-(4-(trifluoromethyl)benzyl)-1H-purine-2,6(3H,7H)-dione or 8-((1S,3S)-3-hydroxycyclopentylamino)-3,7-dimethyl-1-(4-(trifluoromethyl)benzyl)-1H-purine-2,6(3H,7H)-dione] | 1000 to 5000 |
| Cn1c(N[C@@H]2CCCNC2=O)nc2c1c(=O)n(Cc1cc3ccccc3[nH]1)c(=O)n2C [Example 221, (R)-1-((1H-indol-2-yl)methyl)-3,7-dimethyl-8-(2-oxopiperidin-3-ylamino)-1H-purine-2,6(3H,7H)-dione] | 1000 to 5000 |
| Cn1c(NC[C@H](O)CO)nc2c1c(=O)n(Cc1ccc(Cl)cc1)c(=O)n2C [Example 16, 1-[(4-chlorophenyl)methyl]-8-{[(2S)-2,3-dihydroxypropyl]amino}-3,7-dimethyl-2,3,6,7-tetrahydro-1H-purine-2,6-dione] | > 10000 |
| C[C@@H](Nc1nc2c(c(=O)n(Cc3ccc(Cl)c(Cl)c3)c(=O)n2C)n1C)C(=O)O [Example 169, (R)-2-(1-(3,4-dichlorobenzyl)-3,7-dimethyl-2,6-dioxo-2,3,6,7-tetrahydro-1H-purin-8-ylamino)propanoic acid] | 10 to 1000 |
| Cn1c(N2CCC(O)CC2)nc2c1c(=O)n(Cc1cc3cc(Cl)ccc3[nH]1)c(=O)n2C [Example 198, 1-((5-chloro-1H-indol-2-yl)methyl)-8-(4-hydroxypiperidin-1-yl)-3,7-dimethyl-1H-purine-2,6(3H,7H)-dione] | 10 to 1000 |
| Cc1ccc2[nH]c(Cn3c(=O)c4c(nc(-n5nccc5N)n4C)n(C)c3=O)cc2c1 [Example 218, 8-(5-amino-1H-pyrazol-1-yl)-3,7-dimethyl-1-((5-methyl-1H-indol-2-yl)methyl)-1H-purine-2,6(3H,7H)-dione] | 10 to 1000 |

Next, values leading:

| IC50 [nM] | SMILES |
| --- | --- |
| 10 to 1000 | Cn1c(N[C@@H]2CCC[C@H](C(=O)O)C2)nc2c1c(=O)n(Cc1ccc(Cl)c(Cl)c1)c(=O)n2C (single isomer, unassigned) [Example 184, (1S,3R)-3-(1-(3,4-dichlorobenzyl)-3,7-dimethyl-2,6-dioxo-2,3,6,7-tetrahydro-1H-purin-8-ylamino)cyclohexanecarboxylic acid or (1R,3S)-3-(1-(3,4-dichlorobenzyl)-3,7-dimethyl-2,6-dioxo-2,3,6,7-tetrahydro-1H-purin-8-ylamino)cyclohexanecarboxylic acid] |
| 10 to 1000 | Cn1c(N[C@@H]2CC[C@H](CO)C2)nc2c1c(=O)n(Cc1ccc(Cl)c(Cl)c1)c(=O)n2C [Example 276, 1-(3,4-dichlorobenzyl)-8-((1R,3S)-3-(hydroxymethyl)cyclopentylamino)-3,7-dimethyl-1H-purine-2,6(3H,7H)-dione] |
| 10 to 1000 | CC(C)C(N)c1nc2c(c(=O)n(Cc3cc4c(Cl)cccc4[nH]3)c(=O)n2C)n1C (centres unmarked) [Example 437, 8-(1-amino-2-methyl-propyl)-1-[(4-chloro-1H-indol-2-yl)methyl]-3,7-dimethyl-purine-2,6-dione] |
| 10 to 1000 | Cn1c(N[C@H]2CC[C@@H](O)C2)nc2c1c(=O)n(Cc1ccc(Cl)c(Cl)c1)c(=O)n2C (single isomer, unassigned) [Example 43, 1-(3,4-dichlorobenzyl)-8-((1S,3R)-3-hydroxycyclopentylamino)-3,7-dimethyl-1H-purine-2,6(3H,7H)-dione or 1-(3,4-dichlorobenzyl)-8-((1R,3S)-3-hydroxycyclopentylamino)-3,7-dimethyl-1H-purine-2,6(3H,7H)-dione] |
| 10 to 1000 | Cn1c(Nc2ccnc(CCC(=O)N3CCCCC3)n2)nc2c1c(=O)n(Cc1cc3c(Cl)cccc3[nH]1)c(=O)n2C [Example 406, 1-((4-chloro-1H-indol-2-yl)methyl)-3,7-dimethyl-8-(2-(3-oxo-3-(piperidin-1-yl)propyl)pyrimidin-4-ylamino)-1H-purine-2,6(3H,7H)-dione] |
| 10 to 1000 | Cn1c(Nc2ccncc2)nc2c1c(=O)n(Cc1cc3cnccc3[nH]1)c(=O)n2C [Example 460, 1-((1H-pyrrolo[3,2-c]pyridin-2-yl)methyl)-3,7-dimethyl-8-(pyridin-4-ylamino)-1H-purine-2,6(3H,7H)-dione] |
| 10 to 1000 | Cn1c(Nc2ccc(C(=O)O)cc2)nc2c1c(=O)n(Cc1cc3c(Cl)cccc3[nH]1)c(=O)n2C [Example 331, 4-[[1-[(4-chloro-1H-indol-2-yl)methyl]-3,7-dimethyl-2,6-dioxo-purin-8-yl]amino]benzoic acid] |
| 10 to 1000 | Cn1c(C(N)c2ccccc2)nc2c1c(=O)n(Cc1cc3c(Cl)cccc3[nH]1)c(=O)n2C (centres unmarked) [Example 411, 8-(amino(phenyl)methyl)-1-((4-chloro-1H-indol-2-yl)methyl)-3,7-dimethyl-1H-purine-2,6(3H,7H)-dione] |
| 10 to 1000 | Cn1c(NC2CCCC(CO)C2)nc2c1c(=O)n(Cc1ccc(Cl)c(Cl)c1)c(=O)n2C (racemic) [Example 254, (±)-1-(3,4-dichlorobenzyl)-8-(3-(hydroxymethyl)cyclohexylamino)-3,7-dimethyl-1H-purine-2,6(3H,7H)-dione] |
| 10 to 1000 | CCn1c(=O)n(Cc2ccc3c(C)cccc3c2)c(=O)c2c1nc(C(C)N)n2C (centres unmarked) [Example 459, 8-(1-aminoethyl)-3-ethyl-7-methyl-1-((5-methylnaphthalen-2-yl)methyl)-1H-purine-2,6(3H,7H)-dione] |
| 10 to 1000 | Cn1c(N[C@H]2CCC[C@H]2O)nc2c1c(=O)n(Cc1cc3c(Cl)cccc3[nH]1)c(=O)n2C [Example 347, 1-((4-chloro-1H-indol-2-yl)methyl)-8-((1S,2R)-2-hydroxycyclopentylamino)-3,7-dimethyl-1H-purine-2,6(3H,7H)-dione] |
| 10 to 1000 | CCN(CC)C(=O)CCc1nccc(Nc2nc3c(c(=O)n(Cc4cc5c(Cl)cccc5[nH]4)c(=O)n3C)n2C)n1 [Example 426, 3-(4-(1-((4-chloro-1H-indol-2-yl)methyl)-3,7-dimethyl-2,6-dioxo-2,3,6,7-tetrahydro-1H-purin-8-ylamino)pyrimidin-2-yl)-N,N-diethylpropanamide] |
| 10 to 1000 | CCn1c(=O)n(Cc2cc3c(Cl)cccc3[nH]2)c(=O)c2c1nc(C(C)N)n2C (centres unmarked) [Example 441, 8-(1-aminoethyl)-1-((4-chloro-1H-indol-2-yl)methyl)-3-ethyl-7-methyl-1H-purine-2,6(3H,7H)-dione] |
